Data on one molecule can be found in patent US8901127B2, “Pyridazin derivatives as antagonists of the bradykinin B1 receptor” (Boehringer Ingelheim International GmbH, priority 2010, dated 2014).

The target of this assay is T1, cynomolgus BK1-receptor (Macaca fascicularis, UniProt Q3BCU0).
T1 construct: expressed in transfected cells; host or cells: CHO cells
T1 sequence (Q3BCU0 1-352): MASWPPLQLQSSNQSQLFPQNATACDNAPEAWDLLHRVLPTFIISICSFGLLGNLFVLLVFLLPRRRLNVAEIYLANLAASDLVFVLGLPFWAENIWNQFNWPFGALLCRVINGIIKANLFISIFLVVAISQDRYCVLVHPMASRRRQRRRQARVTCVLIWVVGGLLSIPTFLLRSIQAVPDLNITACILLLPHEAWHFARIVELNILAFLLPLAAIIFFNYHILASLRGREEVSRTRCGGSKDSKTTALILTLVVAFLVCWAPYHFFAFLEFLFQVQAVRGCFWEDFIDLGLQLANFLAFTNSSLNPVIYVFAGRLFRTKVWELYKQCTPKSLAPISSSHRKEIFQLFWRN
Nature of the assay: cynoBK1 receptor binding assay. To be noted: homogenate of CHO cells expressing cynomolgus BK1-receptor; radioligand 0.5 to 5.0 nM kallidin (DesArg10,Leu9), [3,4-Prolyl-3,43H(N)]; ambient temperature. How it is done: Description of the Method of Binding the cynoBK1-Receptor
CHO cells that express the cynomolgus BK1-receptor are cultivated in “HAM'S F-12 Medium”. The medium is removed from confluent cultures, the cells are washed with PBS buffer, scraped off or detached using Versene and isolated by centrifuging. Then the cells are homogenised in suspension, the homogenate is centrifuged and resuspended. After the protein content has been determined 200 μl of the homogenate (50 to 250 μg protein/assay) are incubated for 60-180 minutes at ambient temperature with 0.5 to 5.0 nM kallidin (DesArg10,Leu9), [3,4-Prolyl-3,43H(N)] and increasing concentrations of the test substance in a total volume of 250 μl. The incubation is stopped by rapid filtration through GF/B glass fibre filters that have been pre-treated with polyethyleneimine (0.3%). The radioactivity bound to the protein is measured with a TopCount NXT. The radioactivity bound in the presence of 1.0 μM kallidin (DesArg10) is defined as non-specific binding. The concentration binding curve may be analysed using computer-aided non-linear curve fitting to determine the corresponding Ki values for the test substance.

Broadly, the Ki is the dissociation constant of the complex between target and ligand, obtained from inhibition or displacement. Take `O=C(N[C@@]1(C(=O)NCc2ncc(Nc3ccc(Cl)cc3C(F)(F)F)cc2F)CCOC1)c1cn[nH]c(=O)c1` [(5)]: the Ki was determined as 5.6 nM.
